Source: patent US10300052B2, “Methods for increasing CFTR activity” (THE UAB RESEARCH FOUNDATION, priority 2012, dated 2019)

What was measured:
CFTR = molecular target: T1, CFTR (Homo sapiens, UniProt P13569); test: Isc under voltage clamp in normal explanted human trachea; conditions: ivacaftor 10 μM after amiloride 100 μM and forskolin 100 nM, voltage clamp (FIGS. 3A, 3B)
T1 construct: from tissue; host or cells: normal human trachea/bronchus from donor explant organs
Method: Serial addition of amiloride (100 μM), forskolin (100 nM), and ivacaftor (VX-770; 10 μM) or vehicle control is shown, followed by addition of ATP (10 μM), and CFTR Inh-172 (10 μM×2) as control additions.
The change in Isc following addition of ivacaftor (VX-770) or vehicle control is shown. *P<0.05, n=19, 24 samples/condition.
Ivacaftor also potentiated CFTR-dependent current in normal explanted human trachea examined under voltage clamp conditions (FIGS. 3A and B).
Samples of human trachea tissue were obtained from normal donor explant organs not selected for lung transplantation. Lung, mainstem bronchi, and trachea were resected en-bloc, transferred on wet ice, and large airways excised. Airway tissues were then immersed in ice cold DMEM following resection for transfer, then allowed to equilibrate to room temperature prior to mOCT imaging.
Short-circuit current (Isc) was measured under voltage clamp conditions using MC8 voltage clamps and P2300 Ussing chambers (Physiologic Instruments, San Diego, Calif.) as previously described (2). Monolayers were initially bathed on both sides with identical Ringer's solutions containing (in mM) 115 NaCl, 25 NaHCO3, 2.4 KH2PO4, 1.24 K2HPO4, 1.2 CaCl2, 1.2 MgC2, 10 D-glucose (pH 7.4). […] A one-second three-mV pulse was imposed every 10 seconds to monitor resistance calculated using Ohm's law. […]

porcine trachea CFTR+/+ = test: μOCT imaging of airway epithelial function in porcine trachea, CFTR+/+ animals; conditions: ivacaftor 10 μM in bath, 37° C. (FIG. 7H)
Source text: FIGS. 7A-7H show the effects of CFTR activators on airway epithelial function in intact porcine trachea by μOCT. FIGS. 7A-7B show representative μOCT images for a CFTR−/− (FIG. 7A) and CFTR+/+ (FIG. 7B) animal. FIGS. 7C-7F, respectively, show ASL depth (FIG. 7C), PCL depth (FIG. 7D), CBF (FIG. 7E) and MCT (FIG. 7F) measurements derived from μOCT images from CFTR−/− and CFTR+/+ animals. FIGS. 7G and 7H show the response of epithelial functional parameters, namely ASL depth and MCT in CFTR−/− (FIG. 7G) and CFTR+/+(FIG. 7H) animals in response to sequential pharmacologic intervention by ivacaftor (10 μM), forskolin (100 nM) and acetylcholine (100 μM).
To further investigate the role of CFTR activators in modulating airway epithelial cell function, CFTR activators were studied in combination with porcine trachea. In this example, porcine trachea from animals having a mutated CFTR (CFTR (−/−) and from animals having a WT-CFTR (CFTR+/+) were evaluated for ASL depth, PCL depth, CBF and MCT. The results are shown in FIGS. 7A-7H.
FIGS. 7G and 7H show the response of epithelial functional parameters, namely ASL depth, CBF and MCT in CFTR−/− and CFTR+/+ animals in response to sequential pharmacologic intervention by ivacaftor (10 μM), forskolin (100 nM) and acetylcholine (100 μM); in this experiment, acetylcholine served as a positive control to induce glandular extrusion in CF tissue). In these experiments, agonists were added to the bath solution and all experiments were conducted under physiological conditions (37° C. and 100% humidity). […] In contrast to FIG. 7G, ASL depth, CBF and MCT were all increased in response to ivacaftor treatment in CFTR+/+ animals, consistent with the results described above for human tissue.
Normal piglet tracheas were obtained from Exemplar Genetics (Sioux Center, Iowa). Tissue were dissected from one-day-old piglets and shipped on wet ice in DMEM. A modified protocol based on airway tissue handling and preparation methods developed by Ballard et al. (Am J Physiol Lung Cell Mol Physiol 298: L270-276, 2010) was employed. […]

T1 sequence (P13569 whole entry): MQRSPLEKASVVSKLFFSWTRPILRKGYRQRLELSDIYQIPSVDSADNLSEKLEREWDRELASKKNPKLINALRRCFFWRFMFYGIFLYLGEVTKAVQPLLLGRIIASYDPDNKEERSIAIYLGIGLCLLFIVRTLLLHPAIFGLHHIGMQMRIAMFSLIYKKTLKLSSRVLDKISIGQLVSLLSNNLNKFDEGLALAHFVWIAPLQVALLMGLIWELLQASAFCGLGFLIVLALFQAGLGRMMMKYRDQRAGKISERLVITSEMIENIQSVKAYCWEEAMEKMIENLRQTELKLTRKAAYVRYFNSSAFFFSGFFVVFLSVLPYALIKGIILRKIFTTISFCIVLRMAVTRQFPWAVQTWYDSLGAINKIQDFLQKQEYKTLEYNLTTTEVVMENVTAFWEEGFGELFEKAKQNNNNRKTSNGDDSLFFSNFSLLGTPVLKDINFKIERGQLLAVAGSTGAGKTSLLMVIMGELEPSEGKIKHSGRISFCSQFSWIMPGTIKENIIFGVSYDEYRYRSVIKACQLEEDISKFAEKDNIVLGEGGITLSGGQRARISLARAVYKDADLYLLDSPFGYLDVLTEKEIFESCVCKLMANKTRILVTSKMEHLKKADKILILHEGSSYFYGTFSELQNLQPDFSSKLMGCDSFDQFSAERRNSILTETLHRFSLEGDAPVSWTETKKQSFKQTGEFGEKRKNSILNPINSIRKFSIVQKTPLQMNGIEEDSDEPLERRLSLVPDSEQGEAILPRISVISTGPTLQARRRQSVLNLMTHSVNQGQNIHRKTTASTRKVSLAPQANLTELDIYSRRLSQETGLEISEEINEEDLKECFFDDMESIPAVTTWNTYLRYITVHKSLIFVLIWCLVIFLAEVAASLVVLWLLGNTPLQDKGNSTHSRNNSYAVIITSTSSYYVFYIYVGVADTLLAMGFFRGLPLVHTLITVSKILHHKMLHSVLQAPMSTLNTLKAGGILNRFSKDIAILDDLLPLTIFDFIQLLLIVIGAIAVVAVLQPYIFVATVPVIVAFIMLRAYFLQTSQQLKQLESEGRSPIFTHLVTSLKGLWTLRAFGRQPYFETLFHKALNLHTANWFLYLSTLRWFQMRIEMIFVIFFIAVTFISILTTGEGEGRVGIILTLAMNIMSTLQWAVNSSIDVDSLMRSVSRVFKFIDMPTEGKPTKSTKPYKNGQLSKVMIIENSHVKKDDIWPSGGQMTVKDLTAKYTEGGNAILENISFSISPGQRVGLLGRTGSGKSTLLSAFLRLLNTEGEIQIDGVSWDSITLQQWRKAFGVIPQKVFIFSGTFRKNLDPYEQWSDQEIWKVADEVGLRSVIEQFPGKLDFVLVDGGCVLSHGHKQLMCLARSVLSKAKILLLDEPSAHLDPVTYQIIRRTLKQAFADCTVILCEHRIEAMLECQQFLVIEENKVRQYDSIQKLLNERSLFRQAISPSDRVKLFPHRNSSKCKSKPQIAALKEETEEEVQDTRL

CC(C)(C)c1cc(C(C)(C)C)c(NC(=O)c2c[nH]c3ccccc3c2=O)cc1O [ivacaftor]
CFTR-dependent current (CFTR): potentiated
ASL depth response (porcine trachea CFTR+/+): increased
CBF response (porcine trachea CFTR+/+): increased
MCT response (porcine trachea CFTR+/+): increased
